Values of other authors, collected in US20230174656A1, “T[…] REMDESIVIR COMBINATION THERAPY FOR COVID-19 PNEUMONIA” (priority 2020, published 2023).
Like-named read-outs stand apart in the source and are kept apart here.

Legend:
[1] = tested on: CAR T cell-induced severe or life-threatening CRS; conditions: cited from earlier work
[2] = cited from earlier work; for geometric mean maximum concentration of TCZ: patients with CAR T cell induced CRS, % CV in brackets
[3] = tested on: COVID-19 pneumonia; conditions: cited from earlier work

For “TCZ: recombinant humanized monoclonal IgG1κ antibody that binds to human interleukin-6 receptor (IL-6R); light and heavy chains SEQ ID NOs. 1 and 2”, the “patients achieving a response (afebrile and off vasopressors for at least 24 hours) within 14 days of the first dose of TCZ” value ([1]; CTL019 series, 45 patients, maximum up to two doses) is listed as 69%, the “median time from the first dose to response” value ([1]; CTL019 series) is listed as 4 days and the “patients achieving a response” value ([1]; axicabtagene ciloleucel series, 15 patients) is listed as 53%. The “median time to response” value ([1]; axicabtagene ciloleucel series) was 4.5 days, the “adverse reactions attributable to TCZ” value ([1]; patients with CRS after CAR T-cell therapy) was “no reports of adverse reactions attributable to TCZ” and the “geometric mean maximum concentration of TCZ” value ([2]; after the first infusion) was 99.5 µg/mL. For the same substance, the “geometric mean maximum concentration of TCZ” value ([2]; after the second infusion) was 160.7 µg/mL, the “clearance of TCZ (PK modeling analysis)” value ([2]; patients with CRS versus healthy volunteers and other patient populations) was “faster clearance of TCZ than healthy volunteers and other patient populations” and the “patients in whom percentage of lymphocytes in peripheral blood returned to normal” value ([3]; 10/19, fifth day after treatment) was 52.6%. The “patients who had lowered their oxygen intake” value ([3]; 15 of 20 patients) was 75.0%, the “patients in whom abnormally elevated CRP decreased significantly” value ([3]; 16/19) was 84.2% and the “adverse drug reactions and subsequent pulmonary infections” value ([3]; 21 treated patients) was “No adverse drug reactions and no subsequent pulmonary infections were reported”. The deaths ([3]; 21 treated patients) was “no deaths among the 21 treated patients”, the “fever after TCZ treatment” value ([3]; TCZ IV 400 mg plus standard of care) was “fever returned to normal” and the “patients needing no oxygen therapy” value ([3]; after TCZ treatment) was “one patient needed no oxygen therapy”. The “patients with significant remission of opacities in both lungs on CT scans” value ([3]; after treatment) was 90.5% and the “patients discharged at the time of the report” value ([3]; nineteen patients, including two critical patients) was 90.5%.
